ChEMBL document CHEMBL1201862, “PubChem BioAssay data set” (2004)
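96-well plates; 48 h exposure; 5 concentrations. Endpoints by linear interpolation between flanking doses. Not reached: highest tested concentration assigned. GI50 marks 50% less growth.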 Active and inactive are the calls of the source. No stated cut-off is given here; in the data, active = GI50 up to about 1.1 µM and inactive = higher.

Key:
Experiment in all cases: NCI-60 cell line screen, 48 h
SW-620 = system: SW-620
Malme-3M = system: Malme-3M
NCI-H226 = system: NCI-H226
OVCAR-4 = system: OVCAR-4
ACHN = system: ACHN
NCI-H522 = system: NCI-H522
RXF 393 = system: RXF 393
NCI-H460 = system: NCI-H460
COLO 205 = system: COLO 205
HOP-62 = system: HOP-62
HCC 2998 = system: HCC 2998
786-0 = system: 786-0
HCT-116 = system: HCT-116
OVCAR-3 = system: OVCAR-3
U-251 = system: U-251
OVCAR-8 = system: OVCAR-8
MDA-MB-231 = system: MDA-MB-231
UACC-257 = system: UACC-257
LOX IMVI = system: LOX IMVI
IGROV-1 = system: IGROV-1
PC-3 = system: PC-3
SF-295 = system: SF-295
SNB-19 = system: SNB-19
HCT-15 = system: HCT-15
SNB-75 = system: SNB-75
CAKI-1 = system: CAKI-1
HT-29 = system: HT-29
MCF7 = system: MCF7
CCRF-CEM = system: CCRF-CEM
SK-MEL-5 = system: SK-MEL-5
OVCAR-5 = system: OVCAR-5
A549 = system: A549
SK-OV-3 = system: SK-OV-3
SF-268 = system: SF-268
MOLT-4 = system: MOLT-4
SK-MEL-28 = system: SK-MEL-28
UO-31 = system: UO-31
UACC-62 = system: UACC-62
Hs-578T = system: Hs-578T
EKVX = system: EKVX
DU-145 = system: DU-145
SN12C = system: SN12C
T47D = system: T47D
K562 = system: K562
M14 = system: M14
SR = system: SR
KM12 = system: KM12
MDA-N = system: MDA-N
BT-549 = system: BT-549
A498 = system: A498
MDA-MB-435 = system: MDA-MB-435
NCI/ADR-RES = system: NCI/ADR-RES
TK-10 = system: TK-10
SK-MEL-2 = system: SK-MEL-2
NCI-H23 = system: NCI-H23
RPMI-8226 = system: RPMI-8226
HL-60 = system: HL-60
HOP-92 = system: HOP-92
SF-539 = system: SF-539

Measured: GI50

CC(C)(C)OC(=O)N/N=C(/N)Cc1ccc(Cl)cc1
inactive: SW-620 > 100 µM | Malme-3M > 100 µM | NCI-H226 > 100 µM | OVCAR-4 > 100 µM | ACHN > 100 µM | NCI-H522 > 100 µM | RXF 393 > 100 µM | NCI-H460 > 100 µM | COLO 205 > 100 µM | HOP-62 > 100 µM | HCC 2998 > 100 µM | 786-0 > 100 µM | HCT-116 > 100 µM | OVCAR-3 > 100 µM | U-251 > 100 µM | OVCAR-8 > 100 µM | MDA-MB-231 > 100 µM | UACC-257 > 100 µM | LOX IMVI > 100 µM | IGROV-1 > 100 µM | PC-3 > 100 µM | SF-295 > 100 µM | SNB-19 > 100 µM | SNB-75 > 100 µM | CAKI-1 > 100 µM | HT-29 73.1 µM | MCF7 > 100 µM | CCRF-CEM > 100 µM | SK-MEL-5 > 100 µM | OVCAR-5 > 100 µM | A549 > 100 µM | SK-OV-3 > 100 µM | SF-268 > 100 µM | MOLT-4 > 100 µM | SK-MEL-28 > 100 µM | UO-31 > 100 µM | UACC-62 > 100 µM | Hs-578T > 100 µM | EKVX > 100 µM | DU-145 > 100 µM | SN12C > 100 µM | T47D > 100 µM | K562 37.2 µM | M14 > 100 µM | SR 51.6 µM | KM12 > 100 µM | MDA-N > 100 µM | BT-549 > 100 µM | A498 > 100 µM | MDA-MB-435 > 100 µM | NCI/ADR-RES > 100 µM | TK-10 > 100 µM | SK-MEL-2 > 100 µM
> 100 µM: HCT-15

COc1ccc2c(O)c(S(=O)(=O)c3ccc(C)cc3)c(=O)oc2c1OC
> 100 µM: HCT-15
inactive: SW-620 > 100 µM | Malme-3M > 100 µM | NCI-H226 > 100 µM | OVCAR-4 > 100 µM | ACHN > 100 µM | NCI-H522 > 100 µM | RXF 393 > 100 µM | NCI-H460 > 100 µM | COLO 205 > 100 µM | HCC 2998 > 100 µM | 786-0 > 100 µM | HCT-116 > 100 µM | OVCAR-3 > 100 µM | U-251 > 100 µM | OVCAR-8 > 100 µM | MDA-MB-231 > 100 µM | UACC-257 > 100 µM | NCI-H23 > 100 µM | IGROV-1 > 100 µM | PC-3 > 100 µM | SF-295 > 100 µM | SNB-19 > 100 µM | SNB-75 > 100 µM | RPMI-8226 > 100 µM | CAKI-1 > 100 µM | HT-29 > 100 µM | MCF7 > 100 µM | CCRF-CEM > 100 µM | HL-60 > 100 µM | SK-MEL-5 > 100 µM | OVCAR-5 > 100 µM | A549 > 100 µM | SK-OV-3 > 100 µM | SF-268 > 100 µM | MOLT-4 > 100 µM | SK-MEL-28 > 100 µM | UO-31 > 100 µM | UACC-62 > 100 µM | Hs-578T > 100 µM | HOP-92 > 100 µM | EKVX > 100 µM | DU-145 > 100 µM | SN12C > 100 µM | T47D > 100 µM | K562 > 100 µM | SF-539 > 100 µM | M14 > 100 µM | SR > 100 µM | KM12 > 100 µM | MDA-N > 100 µM | BT-549 > 100 µM | MDA-MB-435 > 100 µM | NCI/ADR-RES > 100 µM | TK-10 > 100 µM | SK-MEL-2 > 100 µM
